Target: T1, rTsTrx-1 (Taenia solium thioredoxin-1) (Taenia solium, UniProt A0A0A1E9C2)
T1 construct: gene Trx; full-length coding region, 107 residues, 11,579 Da, active site CGPC; N-terminal six-histidine tag (pRSETB), no tag removal stated
T1 sequence (A0A0A1E9C2 1-107): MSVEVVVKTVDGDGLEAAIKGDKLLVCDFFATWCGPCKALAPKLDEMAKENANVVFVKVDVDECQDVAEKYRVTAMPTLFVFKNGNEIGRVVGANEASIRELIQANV
Assay: DTT/insulin reduction turbidity assay at […] nm
Type: biochemical
Conditions: 20 ug enzyme (1.5 uM) preincubated with MG 30 min at 37 C; insulin 160 uM, 1 mM DTT, 2 mM EDTA, potassium phosphate pH 6.5

Q: Which “% decrease of activity at 3 mM” value does the source give for `CC(=O)C=O` [MG, methylglyoxal] here?
A: 25%
